# According to PubChem BioAssay AID256 (DTP/NCI, 2004):
# Values joined by “and” are separate entries in the source; they are usually repeats but may differ in a detail not shown here. Equal values may be shown once. Toxic doses and inconclusive results are not listed.
# Tested on: CD2F1 mice, L1210 leukemia ip, survival T/C
# Test: NCI In Vivo Anticancer Drug Screen. Data for tumor model L1210 Leukemia (intraperitoneal) in CD2F1 (CDF1) mice
# Details: higher = longer survival
# Summary of the method: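 Compound-dosed mice with transplantable tumor versus matched vehicle controls; endpoint ratio T/C reported.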
# [1] = endpoint: mean survival time, dose: 12.5 mg/kg/injection, schedule: Q01DX009 (ip), vehicle: saline with Tween-80
# [2] = endpoint: mean survival time, dose: 25.0 mg/kg/injection, schedule: Q01DX009 (ip), vehicle: saline with Tween-80
# [3] = endpoint: mean survival time, dose: 50.0 mg/kg/injection, schedule: Q01DX009 (ip), vehicle: saline with Tween-80
# [4] = endpoint: mean survival time, dose: 100.0 mg/kg/injection, schedule: Q01DX009 (ip), vehicle: saline with Tween-80
# [5] = endpoint: mean survival time, dose: 100.0 mg/kg/injection, schedule: Q04DX003 (ip), vehicle: saline with Tween-80
# [6] = endpoint: mean survival time, dose: 200.0 mg/kg/injection, schedule: Q01DX009 (ip), vehicle: saline with Tween-80
# [7] = endpoint: mean survival time, dose: 200.0 mg/kg/injection, schedule: Q04DX003 (ip), vehicle: saline with Tween-80
# [8] = endpoint: mean survival time, dose: 400.0 mg/kg/injection, schedule: Q01DX009 (ip), vehicle: saline with Tween-80
# [9] = endpoint: mean survival time, dose: 400.0 mg/kg/injection, schedule: Q04DX003 (ip), vehicle: saline with Tween-80
# [10] = endpoint: mean survival time, dose: 100.0 mg/kg/injection, schedule: Q01DX009 (ip), vehicle: saline
# [11] = endpoint: mean survival time, dose: 200.0 mg/kg/injection, schedule: Q01DX009 (ip), vehicle: saline
# [12] = endpoint: mean survival time, dose: 400.0 mg/kg/injection, schedule: Q01DX009 (ip), vehicle: saline
smiles,measurement,setting,value
O=C(Nc1ccc(C2=NCCN2)cc1)c1ccc(C(=O)Nc2ccc(C3=NCCN3)cc2)c(Cl)c1,T/C,"endpoint: mean survival time, dose: 0.78 mg/kg/injection, schedule: Q01DX009 (ip), vehicle: saline with Tween-80",104 % of control
same,T/C,"endpoint: mean survival time, dose: 1.56 mg/kg/injection, schedule: Q01DX009 (ip), vehicle: saline with Tween-80",104 % of control and 110 % of control and 114 % of control
same,T/C,"endpoint: mean survival time, dose: 2.5 mg/kg/injection, schedule: Q01DX009 (ip), vehicle: saline",110 % of control
same,T/C,"endpoint: mean survival time, dose: 5.0 mg/kg/injection, schedule: Q01DX009 (ip), vehicle: saline",110 % of control
same,T/C,"endpoint: mean survival time, dose: 8.0 mg/kg/injection, schedule: Q01DX008 (iv), vehicle: water",104 % of control
same,T/C,[1],203 % of control
same,T/C,"endpoint: mean survival time, dose: 20.0 mg/kg/injection, schedule: Q01DX009 (ip), vehicle: saline",179 % of control
same,T/C,[2],250 % of control
same,T/C,"endpoint: mean survival time, dose: 40.0 mg/kg/injection, schedule: Q01DX009 (ip), vehicle: saline",234 % of control
same,T/C,[3],86 % of control and 92 % of control
same,T/C,"endpoint: median survival time, dose: 10.0 mg/kg/injection, schedule: Q04DX003 (ip), vehicle: saline with Tween-80",113 % of control
same,T/C,"endpoint: median survival time, dose: 40.0 mg/kg/injection, schedule: Q04DX003 (ip), vehicle: saline with Tween-80",162 % of control
same,T/C,"endpoint: median survival time, dose: 80.0 mg/kg/injection, schedule: Q04DX003 (ip), vehicle: saline with Tween-80",228 % of control
CO[C@]12[C@@H](COC(N)=O)C3=C(C(=O)C(C)=C(NCCCO)C3=O)N1C[C@@H]1[C@H]2N1C (stereo partly drawn),T/C,"endpoint: mean survival time, dose: 1.5 mg/kg/injection, schedule: Q01DX001 (ip), vehicle: water",101 % of control
same,T/C,"endpoint: mean survival time, dose: 3.0 mg/kg/injection, schedule: Q01DX001 (ip), vehicle: water",101 % of control
same,T/C,"endpoint: mean survival time, dose: 6.0 mg/kg/injection, schedule: Q01DX001 (ip), vehicle: water",102 % of control
same,T/C,"endpoint: mean survival time, dose: 12.0 mg/kg/injection, schedule: Q01DX001 (ip), vehicle: water",107 % of control
same,T/C,"endpoint: mean survival time, dose: 18.75 mg/kg/injection, schedule: Q01DX001 (ip), vehicle: distilled water + Tween-80",104 % of control
same,T/C,"endpoint: mean survival time, dose: 24.0 mg/kg/injection, schedule: Q01DX001 (ip), vehicle: water",101 % of control
same,T/C,"endpoint: mean survival time, dose: 36.0 mg/kg/injection, schedule: Q01DX001 (ip), vehicle: water",102 % of control
same,T/C,"endpoint: mean survival time, dose: 37.5 mg/kg/injection, schedule: Q01DX001 (ip), vehicle: distilled water + Tween-80",107 % of control
same,T/C,"endpoint: mean survival time, dose: 75.0 mg/kg/injection, schedule: Q01DX001 (ip), vehicle: distilled water + Tween-80",107 % of control
same,T/C,"endpoint: mean survival time, dose: 150.0 mg/kg/injection, schedule: Q01DX001 (ip), vehicle: distilled water + Tween-80",116 % of control
ClC(c1ccccc1)C(Cl)c1ccccc1 (stereo not drawn),T/C,"endpoint: mean survival time, dose: 3.13 mg/kg/injection, schedule: Q01DX009 (ip), vehicle: saline with Tween-80",102 % of control
same,T/C,"endpoint: mean survival time, dose: 6.25 mg/kg/injection, schedule: Q01DX009 (ip), vehicle: saline with Tween-80",102 % of control
same,T/C,[1],91 % of control and 95 % of control
CC(O)C(O)C(O)C(/C=N\N=C(/N)[S-])=N/N=C(\N)[S-].[Pt+2] (stereo not drawn),T/C,"endpoint: mean survival time, dose: 100.0 mg/kg/injection, schedule: Q01DX001 (ip), vehicle: saline with Tween-80",111 % of control
same,T/C,[4],91 % of control
same,T/C,[5],88 % of control
same,T/C,"endpoint: mean survival time, dose: 200.0 mg/kg/injection, schedule: Q01DX001 (ip), vehicle: saline with Tween-80",104 % of control
same,T/C,[6],94 % of control
same,T/C,[7],96 % of control
same,T/C,"endpoint: mean survival time, dose: 400.0 mg/kg/injection, schedule: Q01DX001 (ip), vehicle: saline with Tween-80",106 % of control
same,T/C,[8],89 % of control
same,T/C,[9],89 % of control
O=C1OC(=O)c2ccccc21,T/C,"endpoint: mean survival time, dose: 25.0 mg/kg/injection, schedule: Q01DX009 (ip), vehicle: Klucel (hydroxypropylcellulose) (HPC)",91 % of control
same,T/C,"endpoint: mean survival time, dose: 50.0 mg/kg/injection, schedule: Q01DX009 (ip), vehicle: Klucel (hydroxypropylcellulose) (HPC)",95 % of control
same,T/C,"endpoint: mean survival time, dose: 100.0 mg/kg/injection, schedule: Q01DX009 (ip), vehicle: Klucel (hydroxypropylcellulose) (HPC)",95 % of control
O=C(O)c1cc(Br)c(Br)s1,T/C,[5],94 % of control
same,T/C,[7],94 % of control
NC1CCCCC1CC1CCCCC1 (stereo not drawn),T/C,[2],106 % of control
same,T/C,"endpoint: mean survival time, dose: 25.0 mg/kg/injection, schedule: Q04DX003 (ip), vehicle: saline with Tween-80",97 % of control
same,T/C,[3],103 % of control
same,T/C,"endpoint: mean survival time, dose: 50.0 mg/kg/injection, schedule: Q04DX003 (ip), vehicle: saline with Tween-80",97 % of control
same,T/C,[4],95 % of control
same,T/C,[5],98 % of control
CCOC(=O)c1cc(OC(C)=O)c2c(ccc3ccccc32)c1C,T/C,"endpoint: mean survival time, dose: 100.0 mg/kg/injection, schedule: Q04DX003 (ip), vehicle: Klucel (hydroxypropylcellulose) (HPC)",101 % of control
same,T/C,"endpoint: mean survival time, dose: 200.0 mg/kg/injection, schedule: Q04DX003 (ip), vehicle: Klucel (hydroxypropylcellulose) (HPC)",104 % of control
same,T/C,"endpoint: mean survival time, dose: 400.0 mg/kg/injection, schedule: Q04DX003 (ip), vehicle: Klucel (hydroxypropylcellulose) (HPC)",97 % of control
COC(=O)CCCNC(C)C,T/C,"endpoint: mean survival time, dose: 12.5 mg/kg/injection, schedule: Q01DX009 (ip), vehicle: water",101 % of control
same,T/C,"endpoint: mean survival time, dose: 25.0 mg/kg/injection, schedule: Q01DX009 (ip), vehicle: water",95 % of control
same,T/C,"endpoint: mean survival time, dose: 50.0 mg/kg/injection, schedule: Q01DX009 (ip), vehicle: water",102 % of control
same,T/C,"endpoint: mean survival time, dose: 100.0 mg/kg/injection, schedule: Q01DX009 (ip), vehicle: water",95 % of control
same,T/C,"endpoint: mean survival time, dose: 200.0 mg/kg/injection, schedule: Q01DX009 (ip), vehicle: water",102 % of control
COc1cc(/C=N/NC(=O)COc2ccccc2)ccc1O,T/C,[4],89 % of control
same,T/C,[6],89 % of control
same,T/C,[8],94 % of control
Cc1cc(Cc2ccccc2)c(O)c(Cc2ccccc2)c1,T/C,"endpoint: mean survival time, dose: 100.0 mg/kg/injection, schedule: Q04DX003 (ip), vehicle: other",96 % of control
same,T/C,"endpoint: mean survival time, dose: 200.0 mg/kg/injection, schedule: Q04DX003 (ip), vehicle: other",102 % of control
same,T/C,"endpoint: mean survival time, dose: 400.0 mg/kg/injection, schedule: Q04DX003 (ip), vehicle: other",94 % of control
O=C(/C=C/c1ccccc1)N1CCOCC1,T/C,"endpoint: mean survival time, dose: 50.0 mg/kg/injection, schedule: Q04DX003 (ip), vehicle: saline",102 % of control
same,T/C,"endpoint: mean survival time, dose: 100.0 mg/kg/injection, schedule: Q04DX003 (ip), vehicle: saline",96 % of control
same,T/C,"endpoint: mean survival time, dose: 200.0 mg/kg/injection, schedule: Q04DX003 (ip), vehicle: saline",100 % of control
CCCCCCC[CH2][Sn]1([CH2]CCCCCCC)[O]OC(c2ccccc2)[O]1 (stereo not drawn),T/C,"endpoint: mean survival time, dose: 50.0 mg/kg/injection, schedule: Q04DX002 (ip), vehicle: saline with Tween-80",92 % of control
Cc1noc(C)c1CO,T/C,[10],100 % of control
same,T/C,[11],101 % of control
same,T/C,[12],101 % of control
COc1cccc(OC)c1OC(=O)/C=C/C(=O)Oc1c(OC)cccc1OC,T/C,[4],96 % of control
same,T/C,[6],96 % of control
same,T/C,[8],98 % of control
CC(=O)Nc1ccc(NC(=O)Nc2ccc(C)c([N+](=O)[O-])c2)cc1,T/C,[3],98 % of control
same,T/C,[4],98 % of control
same,T/C,[6],98 % of control
CC1=NN(c2ccccc2)C(=O)C1N=Nc1ccccc1S(=O)(=O)O (stereo not drawn),T/C,[4],103 % of control
same,T/C,[5],97 % of control
same,T/C,[6],97 % of control
same,T/C,[7],103 % of control
same,T/C,[8],101 % of control
same,T/C,[9],112 % of control
NNC(=O)c1ccc([N+](=O)[O-])o1,T/C,"endpoint: mean survival time, dose: 37.5 mg/kg/injection, schedule: Q01DX009 (ip), vehicle: saline with Tween-80",97 % of control
same,T/C,[5],110 % of control
CCCCCCCCCCCCCCCCCC(=O)NN,T/C,[4],93 % of control
same,T/C,[5],91 % of control
same,T/C,[6],104 % of control
same,T/C,[7],96 % of control
same,T/C,"endpoint: mean survival time, dose: 266.0 mg/kg/injection, schedule: Q01DX009 (ip), vehicle: saline with Tween-80",119 % of control
same,T/C,[9],109 % of control
same,T/C,"endpoint: mean survival time, dose: 600.0 mg/kg/injection, schedule: Q01DX009 (ip), vehicle: saline with Tween-80",119 % of control
CC1(C)C2(C)CC12C (stereo not drawn),T/C,"endpoint: mean survival time, dose: 1.25 mg/kg/injection, schedule: Q04DX002 (ip), vehicle: saline with Tween-80",97 % of control
same,T/C,"endpoint: mean survival time, dose: 2.5 mg/kg/injection, schedule: Q04DX002 (ip), vehicle: saline with Tween-80",97 % of control
same,T/C,"endpoint: mean survival time, dose: 5.0 mg/kg/injection, schedule: Q04DX002 (ip), vehicle: saline with Tween-80",97 % of control
same,T/C,"endpoint: mean survival time, dose: 10.0 mg/kg/injection, schedule: Q04DX002 (ip), vehicle: saline with Tween-80",97 % of control
CC1CC(=O)C2=C(C1)NC(=O)CC2 (stereo not drawn),T/C,[5],90 % of control
same,T/C,[7],96 % of control
same,T/C,[9],101 % of control
CCOC(=O)CNC(=O)NC,T/C,[10],100 % of control
same,T/C,[11],98 % of control
same,T/C,[12],100 % of control
